# Assays:
# mouse = conditions: in vivo; cited from earlier work
# iPS-ML2 [1] = assay: Evaluation test of skin sensitizing property and/or pyrogenic property: IL-6/IL-8 production by immortalized monocytes (ELISA); format: cell-based, human; conditions: iPS-ML2, 6 hr after addition, culture supernatant ELISA; negative control = medium alone; test substance up to 200 μg/mL
# From the text: (§1) 1. […] 2. […] This operation was repeated once more. 3. […] 4. […] 5. […] 6. […] 7. […] 8. […] 9. […] 10.
# iPS-ML2 [2] = assay: Detection test of skin sensitizer and/or pyrogen: IL-6/IL-8 production by immortalized monocytes (ELISA); format: cell-based, human; conditions: iPS-ML2, both 6 hr and 24 hr after culturing; negative control = culture medium alone
# From the text: as §1
molecule,measurement,setting,value
"Nc1ccc(N)cc1 [P2, 4-Phenylenediamine]",skin sensitizing property in LLNA,mouse,have skin sensitizing property
"CC(O)C(=O)O (centres unmarked) [N7, Lactic acid]",production of IL-6 compared with the negative control,iPS-ML2 [1],did not show production
same,production of IL-8 compared with the negative control,iPS-ML2 [1],did not show production
Staphylococcus aureus Cowan 1 [SAC],production amount of IL-6 in the culture supernatant with respect to the negative control,iPS-ML2 [2],increased as the dilution rate became smaller
same,production amount of IL-8 in the culture supernatant with respect to the negative control,iPS-ML2 [2],increased as the dilution rate became smaller

# Source: patent US20220412958A1, “METHOD FOR EVALUATING SAFETY OF SUBSTANCE IN VITRO USING HUMAN IMMORTALIZED MYELOID CELLS” (MiCAN Technologies Inc., priority 2019, published 2022)
